Among the data in patent US10550116B2, “Fused bicyclic heterocycle derivatives as pesticides” (BAYER CROPSCIENCE AKTIENGESELLSCHAFT, priority 2015, dated 2020) are chromatographic logP and pest or weed control values, retold here.

Like-named read-outs stand apart in the source and are kept apart here.

A short description of series [1]: log P by HPLC on reversed-phase column (EEC Directive 79/831 Annex V.A8). The settings on record: reversed-phase C18 HPLC column, 55° C. The format is physicochemical. Here is the method: The log P values are measured according to EEC Directive 79/831 Annex V.A8 by HPLC (high-performance liquid chromatography) on a reversed-phase column (C 18). Temperature: 55° C. The LC-MS determination in the acidic range is effected at pH 2.7 using 0.1% aqueous formic acid and acetonitrile (contains 0.1% formic acid) as eluents; linear gradient from 10% acetonitrile to 95% acetonitrile. Called log P (HCOOH) in the table. LC-MS determination in the neutral range is effected at pH 7.8 with 0.001 molar aqueous ammonium hydrogencarbonate solution and acetonitrile as eluents; linear gradient from 10% acetonitrile to 95% acetonitrile. Called log P (neutral) in the table. Calibration is carried out using unbranched alkan-2-ones (having 3 to 16 carbon atoms) with known log P values (log P values determined on the basis of the retention times by linear interpolation between two successive alkanones).

A further series concerns Spodoptera frugiperda. Put plainly: Spodoptera frugiperda spray test. To be noted: foliar, 168 h, caterpillars on maize leaf discs, after 7 days, read-out: efficacy. The format is in vivo. As to the method:
(§1) To produce a suitable active ingredient preparation, 1 part by weight of active ingredient is dissolved with the stated parts by weight of solvent and made up with water containing an emulsifier concentration of 1000 ppm until the desired concentration is attained. To produce further test concentrations, the preparation is diluted with emulsifier-containing water. Leaf discs of maize (Zea mays) are sprayed with an active ingredient preparation of the desired concentration and, after drying, populated with caterpillars of the armyworm (Spodoptera frugiperda). After 7 days, the efficacy in % is determined. 100% means that all the caterpillars have been killed; 0% means that no caterpillar has been killed.

For the next series, the system named is Myzus persicae. Put plainly: Myzus persicae spray test. In kind it is in vivo. The settings on record: foliar, Chinese cabbage leaf discs, after 5-6 days, read-out: efficacy. As to the method:
as §1, with “Discs” for “Leaf discs”, “Chinese cabbage leaves (Brassica pekinensis) infested by all stages of the green peach aphid (Myzus persicae)” for “maize (Zea mays)”, “concentration.” for “concentration and, after drying, populated with caterpillars of the armyworm (Spodoptera frugiperda).”, “5-6” for “7”, “aphids” for “caterpillars”, “aphids have” for “caterpillar has”

In another series the test system is Phaedon cochleariae. Put plainly: Phaedon cochleariae spray test. The format is in vivo. The settings on record: foliar, 168 h, larvae on Chinese cabbage leaf discs, after 7 days, read-out: efficacy. Here is the method: as §1, with “water. Discs” for “water. Leaf discs”, “of Chinese cabbage leaves (Brassica pekinensis)” for “of maize (Zea mays)”, “with larvae” for “with caterpillars”, “the mustard beetle (Phaedon cochleariae).” for “the armyworm (Spodoptera frugiperda).”, “the beetle larvae” for “the caterpillars”, “no beetle larvae have” for “no caterpillar has”

Setting [2] is: pH 7.8, aqueous ammonium hydrogencarbonate/acetonitrile, read-out: log P (neutral).
Where [3] appears, read: pH 2.7, 0.1% aqueous formic acid/acetonitrile, read-out: log P (acidic).

Take `CCSc1cc2ccccc2nc1C(C)=O` [1-[3-(Ethylsulphanyl)quinolin-2-yl]ethanone]: the chromatographic logP in series [1] (setting [2]) was found to be 3.31.

Turning to `CCSc1cc2ccccc2nc1C(=O)CBr` [2-Bromo-1-[3-(ethylsulphanyl)quinolin-2-yl]ethanone], the chromatographic logP in series [1] (setting [3]) came to 3.95.

For the compound `CCSc1ccc2nc(-c3nc4cc(C(F)(F)F)ncc4n3C)c(SCC)cc2c1` [3,6-bis(ethylsulphanyl)-2-[3-methyl-6-(trifluoromethyl)imidazo[4,5-c]pyridin-2-yl]quinoline], the chromatographic logP in series [1] (setting [2]) was determined as 4.35.

Take `CCSc1cc2ccccc2nc1C(=O)N(C)OC` [3-(Ethylsulphanyl)-N-methoxy-N-methylquinoline-2-carboxamide]: the chromatographic logP in series [1] (setting [2]) is 2.17.

As to `CCSc1cc2ccccc2nc1C(=O)O` [3-(Ethylsulphanyl)quinoline-2-carboxylic acid], in series [1] (setting [2]), the chromatographic logP is 0.48.

For the compound `CCSc1cc2cc(Cl)ccc2nc1-c1nc2cc(C(F)(F)F)ncc2n1C` [6-Chloro-3-ethylsulphanyl-2-[3-methyl-6-(trifluoromethyl)imidazo[4,5-c]pyridin-2-yl]quinoline], in series [1] (setting [2]), the chromatographic logP turned out to be 3.99.

On to `CCSc1cc2ccccc2nc1-c1nc2cc(C(F)(F)F)ncc2n1C` [Example I-2, 3-Ethylsulphanyl-2-[3-methyl-6-(trifluoromethyl)imidazo[4,5-c]pyridin-2-yl]quinoline], for which, in the series on Spodoptera frugiperda, the pest or weed control at 500 g/ha worked out at 100%. Further, in the series with Myzus persicae, the pest or weed control at 100 g/ha was 100%. Further, the chromatographic logP in series [1] (setting [2]) stood at 3.3.

In the case of `CCS(=O)(=O)c1nc2ccccc2nc1-c1nc2cc(C(F)(F)F)ncc2n1C` [Example I-3, 2-Ethylsulphonyl-3-[3-methyl-6-(trifluoromethyl)imidazo[4,5-c]pyridin-2-yl]quinoxaline], the chromatographic logP in series [1] (setting [2]) came out at 2.45.

In the case of `CCS(=O)(=O)c1cc2ccccc2nc1-c1nc2cc(C(F)(F)F)cnc2n1C` [Example I-5], the pest or weed control at 500 g/ha was 100% in the series with Spodoptera frugiperda, 70% in the series with Myzus persicae and 100% with Phaedon cochleariae.

Regarding `CCS(=O)(=O)c1cc2cc(Cl)ccc2nc1-c1nc2cc(C(F)(F)F)ncc2n1C` [Example I-7], the pest or weed control at 500 g/ha was found to be 100% in the series on Spodoptera frugiperda, 90% with Myzus persicae and 100% in the series on Phaedon cochleariae.

As to `CCS(=O)(=O)c1cc2ccccc2nc1-c1nc2cc(C(F)(F)C(F)(F)F)ncc2n1C` [Example I-10], the pest or weed control at 500 g/ha in the series on Spodoptera frugiperda came to 100%; in the series on Myzus persicae, 90%; in the series on Phaedon cochleariae it was 100%.

On to `CCS(=O)(=O)c1cc2ccccc2nc1-c1nc2cc(C(F)(F)F)ccc2n1C` [Example I-12], for which the pest or weed control at 500 g/ha in the series on Spodoptera frugiperda was 100%; with Myzus persicae it was 90%; in the series with Phaedon cochleariae, 100%.

Regarding `CCS(=O)(=O)c1cc2ccccc2nc1-c1nc2cc3c(cc2[nH]1)OC(F)(F)O3` [Example I-15, 6-(3-Ethylsulphonyl-2-quinolyl)-2,2-difluoro-5H-[1,3]dioxolo[4,5-f]benzimidazole], the pest or weed control at 500 g/ha in the series on Spodoptera frugiperda and in the series with Phaedon cochleariae was 100% throughout. For the same compound, the chromatographic logP in series [1] (setting [2]) came out at 3.37.

Regarding `CCS(=O)(=O)c1cc2ccccc2nc1-c1nc2cc(C(F)(F)F)ccc2o1` [Example I-17], the pest or weed control at 500 g/ha in the series on Spodoptera frugiperda is 100%; in the series with Myzus persicae, 90%; in the series on Phaedon cochleariae, 100%.

Turning to `CCS(=O)(=O)c1cc2ccccc2nc1-c1nc2cc(C(F)(F)C(F)(F)F)cnc2n1C` [Example I-20], the pest or weed control at 100 g/ha with Spodoptera frugiperda (100 g/ha), in the series with Myzus persicae and with Phaedon cochleariae (100 g/ha) was 100% throughout.

Turning to `CCS(=O)(=O)c1cc2ccccc2nc1-c1nc2cc(S(=O)(=O)C(F)(F)F)ccc2n1C` [Example I-24, 3-Ethylsulphonyl-2-[1-methyl-5-(trifluoromethylsulphonyl)benzimidazol-2-yl]quinoline], in series [1] (setting [2]), the chromatographic logP stood at 3.42.

Regarding `CCSc1cc2ccccc2nc1-c1nc2cc(C(F)(F)F)cnc2n1C` [Example I-25], the pest or weed control at 500 g/ha with Spodoptera frugiperda and in the series with Phaedon cochleariae was 100% throughout.

As to `CCSc1cc2ccccc2nc1-c1nc2cc(C(F)(F)F)cnc2o1` [Example I-27], the chromatographic logP in series [1] (setting [2]) stood at 4.36.

Regarding `CC[S+]([O-])c1cc2ccccc2nc1-c1nc2cc(C(F)(F)F)cnc2o1` (centres unmarked) [Example I-28], the chromatographic logP in series [1] (setting [2]) was determined as 2.98.

Consider `CC[S+]([O-])c1cc2ccccc2nc1-c1nc2cc(SC(F)(F)F)ccc2o1` (centres unmarked) [Example I-30], for which the pest or weed control at 500 g/ha in the series on Spodoptera frugiperda came out at 100%; in the series on Myzus persicae it was 70%; in the series with Phaedon cochleariae it was 83%.

For `CCSc1cc2ccccc2nc1-c1nc2cc3c(cc2[nH]1)OC(F)(F)O3` [Example I-31, 6-(3-Ethylsulphanyl-2-quinolyl)-2,2-difluoro-5H-[1,3]dioxolo[4,5-f]benzimidazole], the chromatographic logP in series [1] (setting [2]) is 4.26.

On to `CCSc1cc2ccccc2nc1-c1nc2cc(C(F)(F)C(F)(F)F)ncc2n1C` [Example I-35], for which the pest or weed control at 500 g/ha in the series with Spodoptera frugiperda was 100%; in the series with Phaedon cochleariae, 83%.

As to `CCS(=O)(=O)c1cnc2nc(-c3nc4cc(C(F)(F)F)ncc4n3C)c(S(=O)(=O)CC)cc2c1` [Example I-41, 3,6-Bis(ethylsulphonyl)-2-[3-methyl-6-(trifluoromethyl)-3H-imidazo[4,5-c]pyridin-2-yl]-1,8-naphthyridine], the pest or weed control at 500 g/ha with Myzus persicae turned out to be 90%. The chromatographic logP in series [1] (setting [2]) was 2.21.

Take `CCSc1cc2ccccc2nc1-c1cn2cnc(C(F)(F)F)cc2n1` [Example I-46, 3-(Ethylsulphanyl)-2-[7-(trifluoromethyl)imidazo[1,2-c]pyrimidin-2-yl]quinoline]: in series [1] (setting [2]), the chromatographic logP was determined as 3.24.

In the case of `Cn1c(-c2nc3ccccc3cc2Cl)nc2cc(C(F)(F)F)ncc21` [Example V-1, 3-Chloro-2-[3-methyl-6-(trifluoromethyl)imidazo[4,5-c]pyridin-2-yl]quinoline], the chromatographic logP in series [1] (setting [2]) came out at 2.89.

As to `Cn1c(-c2nc3ccccc3nc2Cl)nc2cc(C(F)(F)F)ncc21` [Example V-2, 2-Chloro-3-[3-methyl-6-(trifluoromethyl)imidazo[4,5-c]pyridin-2-yl]quinoxaline], the chromatographic logP in series [1] (setting [2]) was found to be 2.84.

Consider `Cn1c(-c2nc3ncc(Cl)cc3cc2Cl)nc2cc(C(F)(F)F)ncc21` [Example V-3, 3,6-Dichloro-2-[3-methyl-6-(trifluoromethyl)-3H-imidazo[4,5-c]pyridin-2-yl]-1,8-naphthyridine], for which the chromatographic logP in series [1] (setting [2]) came to 2.44.

As for `Cn1c(-c2nc3ccc(Cl)cc3cc2Cl)nc2cc(C(F)(F)F)ncc21` [Example V-4, 3,6-Dichloro-2-[3-methyl-6-(trifluoromethyl)imidazo[4,5-c]pyridin-2-yl]quinoline], the chromatographic logP in series [1] (setting [2]) was found to be 3.53.

As to `O=C(O)c1nc2ncc(Cl)cc2cc1Cl` [III-1, 3,6-Dichloro-1,8-naphthyridine-2-carboxylic acid], the chromatographic logP in series [1] (setting [3]) stood at 0.7.

For the compound `CCSc1cc2ccccc2nc1C(=O)Nc1cc(C(F)(F)F)cnc1Cl` [IV-1], in series [1] (setting [2]), the chromatographic logP was determined as 5.71.

Consider `COC(=O)c1ccc2cccnc2n1` [XXII-1, Methyl 1,8-naphthyridine-2-carboxylate], for which the chromatographic logP in series [1] (setting [2]) was 0.77.

For `COC(=O)c1ccc2ncccc2n1` [XXII-2, Methyl 1,5-naphthyridine-2-carboxylate], the chromatographic logP in series [1] (setting [2]) worked out at 0.92.

Consider `O=C(O)c1ccc2cccnc2n1` [XXX-1, 1,8-Naphthyridine-2-carboxylic acid], for which the chromatographic logP in series [1] (setting [3]) was -0.12.

On to `COC(=O)c1nc2ncc(Cl)cc2cc1Cl` [XXXI-1, Methyl 3,6-dichloro-1,8-naphthyridine-2-carboxylate], for which, in series [1] (setting [2]), the chromatographic logP came out at 1.93.

In the case of `COC(=O)c1nc2ccc(Cl)nc2cc1Cl` [XXXI-2, Methyl 3,6-dichloro-1,5-naphthyridine-2-carboxylate], the chromatographic logP in series [1] (setting [2]) was determined as 2.46.
